Reference: BindingDB's records for doi:10.1021/jm020122x (The Royal Danish School of Pharmacy, 2002)

Target: Metabotropic glutamate receptor 2 (Rattus norvegicus) (UniProt P31421)
Assay: Compound was evaluated for the inhibitory activity against cloned Metabotropic glutamate receptor 2

Chain of Metabotropic glutamate receptor 2 (Rattus norvegicus) (P31421 whole entry, looked up): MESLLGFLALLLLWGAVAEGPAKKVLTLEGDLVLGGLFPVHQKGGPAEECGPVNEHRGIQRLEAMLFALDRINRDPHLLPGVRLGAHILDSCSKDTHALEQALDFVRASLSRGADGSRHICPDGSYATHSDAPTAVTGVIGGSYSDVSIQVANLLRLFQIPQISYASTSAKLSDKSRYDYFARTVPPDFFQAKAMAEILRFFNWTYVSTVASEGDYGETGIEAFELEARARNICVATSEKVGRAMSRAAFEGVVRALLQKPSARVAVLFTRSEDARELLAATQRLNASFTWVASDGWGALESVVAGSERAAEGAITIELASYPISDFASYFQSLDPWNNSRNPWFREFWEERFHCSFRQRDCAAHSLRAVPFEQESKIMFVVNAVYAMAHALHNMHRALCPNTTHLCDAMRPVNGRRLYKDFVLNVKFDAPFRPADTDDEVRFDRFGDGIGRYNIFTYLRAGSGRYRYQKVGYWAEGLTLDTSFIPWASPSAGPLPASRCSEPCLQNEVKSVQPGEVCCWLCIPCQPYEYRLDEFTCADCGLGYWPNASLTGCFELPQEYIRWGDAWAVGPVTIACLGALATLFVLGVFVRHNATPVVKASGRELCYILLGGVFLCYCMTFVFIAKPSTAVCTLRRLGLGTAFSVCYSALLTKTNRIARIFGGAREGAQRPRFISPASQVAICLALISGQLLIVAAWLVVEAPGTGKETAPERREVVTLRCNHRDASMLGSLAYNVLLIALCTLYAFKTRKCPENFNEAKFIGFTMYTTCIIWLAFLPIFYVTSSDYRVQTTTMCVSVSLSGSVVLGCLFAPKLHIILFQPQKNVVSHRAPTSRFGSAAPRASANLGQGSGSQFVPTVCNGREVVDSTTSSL

| SMILES | EC50 [µM] |
| --- | --- |
| Cc1o[nH]c(=O)c1CC[C@H](N)C(=O)O [2-Amino-4-(3-hydroxy-5-methyl-isoxazol-4-yl)-butyric acid(S-homo-AMPA)] | > 1000 |
| Cc1o[nH]c(=O)c1CC[C@@H](N)C(=O)O [(R)-2-Amino-4-(3-hydroxy-5-methyl-isoxazol-4-yl)-butyric acid] | > 1000 |
